Laboratory results reported in patent publication US10526352B2, “Tricyclic benzoxaborole compounds and uses thereof” (GlaxoSmithKline Intellectual Property (No.2) Limited, priority 2013, dated 2020).
Converted amounts (≈) assume the structure as drawn. Where two headings read alike, the source gives them in different places.

Legend:
[1] = test system: E. coli K12 tolC::Tn10; experiment: General antimicrobial activity assay (CLSI broth microdilution); assay type: cell-based, Escherichia coli
Description: (§1) Whole-cell antimicrobial activity was determined by broth microdilution using the Clinical and Laboratory Standards Institute (CLSI) recommended procedure, Document M7-A7, “Methods for Dilution Susceptibility Tests for Bacteria that Grow Aerobically”.

[2] = test system: E. coli K12; experiment: as above; assay type: cell-based, Escherichia coli
Description: as §1

[3] = test system: A. baumannii ATCC 17978; experiment: as above; assay type: cell-based, Acinetobacter baumannii
Description: as §1

[4] = test system: P. aeruginosa PA01; experiment: as above; assay type: cell-based, Pseudomonas aeruginosa
Description: as §1

[5] = test system: HepG2 cells
[6] = test system: M. tuberculosis standard strain Mtb H37Rv; experiment: MIC determination against mycobacteria (resazurin, Middlebrook 7H9); assay type: cell-based, Mycobacterium tuberculosis; conditions: read-out: Mtb H37Rv MIC (B)
[7] = target: Mtb LeuRS (Mycobacterium tuberculosis, UniProt P9WFV1); experiment: biochemical; set-up: species or system M. tuberculosis
Chain of Mtb LeuRS (P9WFV1 whole entry): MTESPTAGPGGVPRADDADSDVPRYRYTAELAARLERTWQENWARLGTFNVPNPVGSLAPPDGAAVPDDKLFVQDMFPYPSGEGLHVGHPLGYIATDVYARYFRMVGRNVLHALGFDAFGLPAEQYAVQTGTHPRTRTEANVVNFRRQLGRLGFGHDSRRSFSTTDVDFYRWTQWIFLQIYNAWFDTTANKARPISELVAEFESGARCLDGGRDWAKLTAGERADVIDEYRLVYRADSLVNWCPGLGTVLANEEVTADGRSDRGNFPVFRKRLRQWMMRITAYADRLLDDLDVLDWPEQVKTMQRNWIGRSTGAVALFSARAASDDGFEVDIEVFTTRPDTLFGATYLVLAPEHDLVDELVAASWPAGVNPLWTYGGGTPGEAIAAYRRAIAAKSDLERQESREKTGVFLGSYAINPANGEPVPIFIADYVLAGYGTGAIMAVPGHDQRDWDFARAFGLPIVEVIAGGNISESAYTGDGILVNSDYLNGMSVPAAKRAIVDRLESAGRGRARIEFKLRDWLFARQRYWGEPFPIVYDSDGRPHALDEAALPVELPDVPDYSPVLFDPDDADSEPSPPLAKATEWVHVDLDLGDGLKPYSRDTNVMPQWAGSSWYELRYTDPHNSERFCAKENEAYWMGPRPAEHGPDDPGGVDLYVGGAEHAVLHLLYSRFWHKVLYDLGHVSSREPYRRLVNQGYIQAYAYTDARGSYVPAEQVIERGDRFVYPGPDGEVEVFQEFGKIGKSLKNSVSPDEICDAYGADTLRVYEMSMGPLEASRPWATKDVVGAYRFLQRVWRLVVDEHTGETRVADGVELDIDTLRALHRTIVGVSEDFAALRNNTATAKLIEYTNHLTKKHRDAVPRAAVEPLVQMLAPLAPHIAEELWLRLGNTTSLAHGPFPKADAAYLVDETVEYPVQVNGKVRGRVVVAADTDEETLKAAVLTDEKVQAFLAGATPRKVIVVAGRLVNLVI

[8] = test system: M. tuberculosis clinical isolates; experiment: MIC against clinical strains (BACTEC MGIT 960 System); assay type: cell-based; conditions: Mycobacterium tuberculosis
[9] = Mycobacterium tuberculosis, H37RV
[10] = HepG2 Tox50 (A) / Mtb H37Rv MIC (B)

Cl.NCC1OB2OCCOc3ccc(Cl)c1c32 (centres unmarked) [Example 3]
MIC: E. coli K12 tolC::Tn10 [1]: >64 µg/mL
MIC: E. coli K12 [2]: >64 µg/mL
MIC: A. baumannii ATCC 17978 [3]: >64 µg/mL
MIC: P. aeruginosa PA01 [4]: >64 µg/mL
HepG2 cell 48 h Tox50 (A) ([5]; 48 h): >50 µM
Selectivity Index (A/B) ([5]; hydrochloride): >106

Cl.NCC1OB2OCCOc3ccc(F)c1c32 (centres unmarked) [Example 5]
MIC: E. coli K12 tolC::Tn10 [1]: 64 µg/mL
MIC: E. coli K12 [2]: 32 µg/mL
MIC: A. baumannii ATCC 17978 [3]: >64 µg/mL
MIC: P. aeruginosa PA01 [4]: 4 µg/mL

CC1(C)COc2cccc3c2B(OC3CN)O1 (centres unmarked) [Example C12-H, reference compound]
MIC [6, 9]: > 5 µM
MIC: E. coli K12 tolC::Tn10 [1]: 2 µg/mL (≈ 8.58 µM)
MIC: E. coli K12 [2]: 4 µg/mL (≈ 17.2 µM)
MIC: A. baumannii ATCC 17978 [3]: 4 µg/mL (≈ 17.2 µM)
MIC: P. aeruginosa PA01 [4]: 16 µg/mL (≈ 68.6 µM)
Selectivity Index (A/B) [5, 10]: >4.9
HepG2 cell 48 h Tox50 (A) ([5]; human, 48 h): 24.5 µM

CC1COc2ccc(Cl)c3c2B(O1)OC3CN.Cl (centres unmarked) [Example 7, (3-chloro-8-methyl-7,8-dihydro-2H-1,6,9-trioxa-9a-borabenzo[cd]azulen-2-yl)methanamine Hydrochloride]
MIC [6, 9]: 0.2 µM
MIC: E. coli K12 tolC::Tn10 [1]: >64 µg/mL
MIC: E. coli K12 [2]: >64 µg/mL
MIC: A. baumannii ATCC 17978 [3]: >64 µg/mL
MIC: P. aeruginosa PA01 [4]: >64 µg/mL
Selectivity Index (A/B) [5]: >250
HepG2 cell 48 h Tox50 (A) ([5]; 48 h): >50 µM

CC1(C)COc2c(Cl)ccc3c2B(O[C@@H]3CN)O1 [Example C13-Cl, reference compound]
MIC [6, 9]: 5 µM (≈ 1.34 µg/mL)
IC50 [7]: 2.16 µM
Selectivity Index (A/B) [5, 10]: >10
HepG2 cell 48 h Tox50 (A) ([5]; human, 48 h): >50 µM

Cl.NCC1OB2OCCOc3ccc(Br)c1c32 (centres unmarked) [Example 1]
MIC: E. coli K12 tolC::Tn10 [1]: >64 µg/mL
MIC: E. coli K12 [2]: >64 µg/mL
MIC: A. baumannii ATCC 17978 [3]: >64 µg/mL
MIC: P. aeruginosa PA01 [4]: >64 µg/mL
HepG2 cell 48 h Tox50 (A) ([5]; 48 h): >50 µM
Selectivity Index (A/B) ([5]; hydrochloride): >277

NCC1OB2OCCOc3cccc1c32 (racemic) [Example C2-H, reference compound]
MIC [6, 9]: 1.88 µM (≈ 0.385 µg/mL)
MIC: E. coli K12 tolC::Tn10 [1]: 4 µg/mL (≈ 19.5 µM)
MIC: E. coli K12 [2]: 2 µg/mL (≈ 9.76 µM)
MIC: A. baumannii ATCC 17978 [3]: 2 µg/mL (≈ 9.76 µM)
MIC: P. aeruginosa PA01 [4]: 2 µg/mL (≈ 9.76 µM)
Selectivity Index (A/B) [5, 10]: >26
HepG2 cell 48 h Tox50 (A) ([5]; human, 48 h): >50 µM

CC1(C)COc2ccc(Br)c3c2B(O[C@@H]3CN)O1.Cl [Example 10, (S)-(3-bromo-8,8-dimethyl-7,8-dihydro-2H-1,6,9-trioxa-9a-borabenzo[cd]azulen-2-yl)methanamine Hydrochloride]
MIC [6, 9]: 0.16 µM
MIC: E. coli K12 tolC::Tn10 [1]: >64 µg/mL
MIC: E. coli K12 [2]: >64 µg/mL
MIC: A. baumannii ATCC 17978 [3]: >64 µg/mL
MIC: P. aeruginosa PA01 [4]: >64 µg/mL

CC1(C)COc2ccc(Cl)c3c2B(OC3CN)O1.Cl (centres unmarked) [Example 11, (3-chloro-8,8-di methyl-7,8-dihydro-2H-1,6,9-trioxa-9a-borabenzo[cd]azulen-2-yl)methanamine Hydrochloride]
MIC [6, 9]: 0.27 µM
MIC: E. coli K12 tolC::Tn10 [1]: >64 µg/mL
MIC: E. coli K12 [2]: >64 µg/mL
MIC: A. baumannii ATCC 17978 [3]: >64 µg/mL
MIC: P. aeruginosa PA01 [4]: >64 µg/mL
HepG2 cell 48 h Tox50 (A) ([5]; 48 h): >50 µM
Selectivity Index (A/B) ([5]; hydrochloride): >185

CC1(C)COc2ccc(Br)c3c2B(OC3CN)O1.Cl (centres unmarked) [Example 9, (3-bromo-8,8-dimethyl-7,8-dihydro-2H-1,6,9-trioxa-9a-borabenzo[cd]azulen-2-yl)methanamine hydrochloride]
MIC [6, 9]: 0.3 µM
MIC: E. coli K12 tolC::Tn10 [1]: >64 µg/mL
MIC: E. coli K12 [2]: >64 µg/mL
MIC: A. baumannii ATCC 17978 [3]: >64 µg/mL
MIC: P. aeruginosa PA01 [4]: >64 µg/mL
HepG2 cell 48 h Tox50 (A) ([5]; 48 h): >50 µM
Selectivity Index (A/B) ([5]; hydrochloride): >167

CC1COc2ccc(Br)c3c2B(O1)OC3CN.Cl (centres unmarked) [Example 8, (3-bromo-8-methyl-7,8-dihydro-2H-1,6,9-trioxa-9a-borabenzo[cd]azulen-2-yl)methanamine hydrochloride]
MIC [6, 9]: 0.3 µM
MIC: E. coli K12 tolC::Tn10 [1]: >64 µg/mL
MIC: E. coli K12 [2]: >64 µg/mL
MIC: A. baumannii ATCC 17978 [3]: >64 µg/mL
MIC: P. aeruginosa PA01 [4]: >64 µg/mL
Selectivity Index (A/B) [5]: >167
HepG2 cell 48 h Tox50 (A) ([5]; 48 h): >50 µM

Cl.NC[C@H]1OB2OCCOc3ccc(Br)c1c32 [Example 2, (S)-(3-bromo-7,8-dihydro-2H-1,6,9-trioxa-9a-borabenzo[cd]azulen-2-yl)methanamine hydrochloride]
MIC [6, 9]: < 0.1 µM
MIC ([6]; hydrochloride): 0.07 µM
MIC ([8]; for all of but 1 of the 40 clinical isolate strains tested): < 1 µM
MIC ([8]; read-out: measured MIC (breakdown), for 1 strain (EXAMPLE 2 and EXAMPLE 4), highest MIC): 0.16 µM
MIC ([8]; read-out: measured MIC (breakdown), for 1 strain of 40 clinical isolates (EXAMPLE 2)): 0.04 µM
MIC ([8]; read-out: measured MIC (breakdown), for 40 strains (EXAMPLE 2 and EXAMPLE 4)): 0.08 µM
MIC ([8]; strain 137, sensitive clinical isolate): 0.08 µM
MIC ([8]; strain 169, sensitive clinical isolate): 0.08 µM
MIC ([8]; strain 192, sensitive clinical isolate): 0.08 µM
MIC ([8]; strain 199, sensitive clinical isolate): 0.08 µM
MIC ([8]; strain 206, sensitive clinical isolate): 0.08 µM
MIC ([8]; strain 207, sensitive clinical isolate): 0.08 µM
MIC ([8]; strain 208, sensitive clinical isolate): 0.08 µM
MIC ([8]; strain 223, sensitive clinical isolate): 0.08 µM
MIC ([8]; strain 231, sensitive clinical isolate): 0.08 µM
MIC ([8]; strain 237, sensitive clinical isolate): 0.08 µM
MIC ([8]; strain 247, sensitive clinical isolate): 0.08 µM
MIC ([8]; strain 248, sensitive clinical isolate): 0.08 µM
MIC ([8]; strain 249, sensitive clinical isolate): 0.08 µM
MIC ([8]; strain 255, sensitive clinical isolate): 0.08 µM
MIC ([8]; strain 261, sensitive clinical isolate): 0.08 µM
MIC ([8]; strain 265, sensitive clinical isolate): 0.08 µM
MIC ([8]; strain 269, sensitive clinical isolate): 0.08 µM
MIC ([8]; strain 281, sensitive clinical isolate): 0.08 µM
MIC ([8]; strain 292, sensitive clinical isolate): 0.08 µM
MIC ([8]; strain 314, sensitive clinical isolate): 0.08 µM
MIC ([8]; strain 316, sensitive clinical isolate): 0.08 µM
MIC ([8]; strain 317, sensitive clinical isolate): 0.08 µM
MIC ([8]; strain 322, sensitive clinical isolate): 0.08 µM
MIC ([8]; strain 323, sensitive clinical isolate): 0.08 µM
MIC ([8]; strain 324, sensitive clinical isolate): 0.08 µM
MIC ([8]; strain 326, sensitive clinical isolate): 0.08 µM
MIC ([8]; strain 327, sensitive clinical isolate): 0.08 µM
MIC ([8]; strain 328, sensitive clinical isolate): 0.08 µM
MIC ([8]; strain 329, sensitive clinical isolate): 0.08 µM
MIC ([8]; strain 332, sensitive clinical isolate): 0.08 µM
MIC ([8]; strain 333, sensitive clinical isolate): 0.08 µM
MIC ([8]; strain 358, sensitive clinical isolate): 0.08 µM
MIC: E. coli K12 tolC::Tn10 [1]: 64 µg/mL
MIC: E. coli K12 [2]: 64 µg/mL
MIC: A. baumannii ATCC 17978 [3]: 64 µg/mL
MIC: P. aeruginosa PA01 [4]: 64 µg/mL
HepG2 cell 48 h Tox50 (A) ([5]; 48 h): 292.4 µM
Selectivity Index (A/B) [5, 10]: 4177

CC1(C)COc2ccc(Cl)c3c2B(O[C@@H]3CN)O1.Cl [Example 12, (S)-(3-chloro-8,8-dimethyl-7,8-dihydro-2H-1,6,9-trioxa-9a-borabenzo[cd]azulen-2-yl)methanamine Hydrochloride]
MIC [6, 9]: 0.08 µM
MIC: E. coli K12 tolC::Tn10 [1]: >64 µg/mL
MIC: E. coli K12 [2]: >64 µg/mL
MIC: A. baumannii ATCC 17978 [3]: >64 µg/mL
MIC: P. aeruginosa PA01 [4]: >64 µg/mL

C[C@]1(CO)COc2ccc(Br)c3c2B(OC3CN)O1 (stereo partly drawn) [Example 17, ((2S, 8S, or 2R, 8R)-2-(aminomethyl)-3-bromo-8-methyl-7,8-dihydro-2H-1,6,9-trioxa-9a-borabenzo[cd]azulen-8-yl)methanol]
MIC [6, 9]: 0.925 µM (≈ 0.303 µg/mL)
IC50 [7]: 1.97 µM
Selectivity Index (A/B) [5, 10]: >50
HepG2 cell 48 h Tox50 (A) ([5]; human, 48 h): >50 µM

CC1COc2cccc3c2B(O1)OC3CN (centres unmarked) [Example C11-H, reference compound]
MIC [6, 9]: 1.56 µM (≈ 0.342 µg/mL)
MIC: E. coli K12 tolC::Tn10 [1]: 2 µg/mL (≈ 9.13 µM)
MIC: E. coli K12 [2]: 2 µg/mL (≈ 9.13 µM)
MIC: A. baumannii ATCC 17978 [3]: 4 µg/mL (≈ 18.3 µM)
MIC: P. aeruginosa PA01 [4]: 2 µg/mL (≈ 9.13 µM)
HepG2 cell 48 h, figure in brackets beside Tox50 ([5]; 48 h, printed as >50 (40%)): 40%
Selectivity Index (A/B) [5, 10]: >32
HepG2 cell 48 h Tox50 (A) ([5]; human, 48 h): > 50 µM
